From patent US7939568B2, “Use of a composition comprising vitamin K1 oxide or a derivative thereof for the treatment and/or the prevention of mammal dermatological lesions” (Auriga International S.A., priority 2003, dated 2011)

What was measured:
[1] = Transformation in presence of light; format: physicochemical
Source text: The improved stability of vitamin K1 oxide compared to vitamin K1, reduces also unexpectedly the side effects of a cosmetic composition. […] Such transformation of vitamin K1 oxide is not observed in the presence of light and these side effects are not present when the cosmetic composition according to the invention is applied upon mammal skin.

[2] = Formation of chromophoric group on mixing with retinol; format: physicochemical; conditions: mixing with retinol (or retinol palmitate)

SMILES | transformation into Menadione (vitamin K3) and 1.4.Naphtoquinone [1] | formation of chromophoric group [2]
CC(=CCC12OC1(C)C(=O)c1ccccc1C2=O)CCCC(C)CCCC(C)CCCC(C)C (stereo not drawn) [vitamin K1 oxide] | not observed | does not allow the formation of chromophoric group
CC1=C(C/C=C(\C)CCC[C@H](C)CCC[C@H](C)CCCC(C)C)C(=O)c2ccccc2C1=O [vitamin K1, 2-methyl 3-phytyl-1,4-naphtoquinone] | transformed into Menadione (vitamin K3) and 1.4.Naphtoquinone | 
